Here are results for 27 molecules from patent US9011882B2, “Dimethylarginine dimethylaminohydrolase inhibitors and methods of use thereof” (The Board of Trustees of the Leland Stanford Junior …, priority 2012, dated 2015).

Experiment [1] concerns the target T1, human DDAH1 (Homo sapiens (Human), UniProt O94760). Briefly: Inhibitors of human DDAH-1 validated in full dose-response curves (Table 1). It counts as biochemical. Particulars: for IC50: Assay Explorer software. As to the method:
(§1) Over 130,000 small molecules deposited in the Stanford High-throughput Bioscience Center (HTBC) were screened using the enzymatic assay to identify chemicals that regulate DDAH activity. In brief, recombinant human DDAH1 (rhDDAH1) was mixed with ADMA in the presence of screening buffer in 384-well plates using a Staccato multidrop. Small molecules (100 nL each) were then added to the wells using a robotic arrayer to yield a final compound screening concentration of up to 50 μM. Plates were incubated at 37° C. for 4 hours. Subsequently, color developing reagent (containing 2 volumes of Antipyrine and 1 volume of 2,3-Butanedione oxime reagents) was added using Velocity 11 system and the plates were sealed using an automated plate sealer. Finally, color was developed by incubating the plates at 60° C. for 90 minutes prior to spinning them at 1,500 rpm for 5 minutes. In this assay absorbance is proportional to the concentration of citrulline generated by DDAH, and was measured using an AnalystGT plate reader at 485 nm using a dichroic beamsplitter. The signal-to-noise ratio of separation was calculated using an established formula in Zhang. (Zhang, J. H., Chung, T. D. & Oldenburg, K. R. A Simple Statistical Parameter for Use in Evaluation and Validation of High Throughput Screening Assays. J Biomol Screen 4, 67-73 (1999)).
Inhibitors were defined as compounds that reduce absorbance by at least 30% compared to control wells. The hits were validated using 8-point full dose response study (50 μM to 0.39 μM in serial dilutions). […] To determine which of these hits were true inhibitors of DDAH activity, a modification of a validated secondary fluorometric assay was used, as described below. […]

Experiment [2] has as its target T1, human DDAH1. The experiment can be described thus: Fluorimetric CPM assay of DDAH activity (SMTC substrate). Type of experiment: biochemical. The conditions noted are these: for IC50: CPM assay, 100 μM SMTC, Assay Explorer software, read-out: IC50; for inhibition of DDAH activity, CPM fluorometric validation: fresh powders from vendors, vs vehicle. As to the method: The activity of human DDAH1 was quantified using fluorimetric assay by incubating the enzyme with an artificial substrate S-methyl-thiocitrulline (SMTC). DDAH metabolizes SMTC into L-citrulline and methanethiol (CH3—SH). The thiol released from the reaction can be monitored fluorimetrically by adding 7-Diethylamino-3-(4-maleimidophenyl)-4-methylcoumarin (CPM).
The activity of human DDAH1 was quantified using fluorimetric assay by incubating the enzyme with an artificial substrate S-methyl-thiocitrulline (SMTC), as described in Example 1. DDAH metabolizes SMTC into L-citrulline and methanethiol (CH3—SH). The thiol released from the reaction can be monitored fluorimetrically by adding 7-Diethylamino-3-(4-maleimidophenyl)-4-methylcoumarin (CPM).
For the secondary assay, a fluorimetric assay that uses SMTC as a substrate was adapted. DDAH metabolizes SMTC into L-citrulline and methanethiol (CH3—SH). In brief, DDAH (30 nM final concentration) was mixed with SMTC (100 μM final concentration), CPM (50 μM final concentration) and screening buffer (containing a final concentration of 0.01% Triton-X100 and 1 mM EDTA). The reaction mix was added to black 384-well plates to validate primary hits that modulate DDAH activity. The release of CH3—SH was monitored fluorimetrically by adding 7-Diethylamino-3-(4-maleimidophenyl)-4-methylcoumarin (CPM) as described in Linsky (Linsky, T. & Fast, W. A continuous, fluorescent, high-throughput assay for human dimethylarginine dimethylaminohydrolase-1. J Biomol Screen 16, 1089-1097 (2011)).

Experiment [3] concerns human microvascular endothelial cells (HMEC-1). Briefly: Intracellular ADMA by ELISA in endothelial cells. Particulars: 20 μM, 24 hours, compared to vehicle control. It counts as cell-based. On the procedure: (§2) First, human microvascular endothelial cells (HMEC-1; ATCC) were seeded in 75 cm^2 cell culture flasks and cultured in fully supplemented DMEM (Invitrogen cat #11995; supplemented with 10% fetal bovine serum (FBS), 4 mM HEPES; GIBCO 15630 and penicillin/streptomycin). The cells were incubated at 37° C./5% CO2 until ˜60% confluency. The cells were then washed with phosphate buffered saline (PBS) and plain DMEM (DMEM with no addition of serum or the other supplements) was mixed with esomeprazole (20 μM final concentration from 100 mM stock) and added to the cells. […] After ˜4 hrs of incubation, the media was aspirated from each flask and the cells were cultured in fully supplemented DMEM as described above and incubated at 37° C./5% CO2 for another 20 hrs. The serum was initially withdrawn due to the possibility that esomeprazole would interact with Cys containing serum proteins and fail to internalize at effective concentrations.
After 24 hrs, the cells were harvested. Total cellular protein was estimated as described and ADMA was measured by enzyme-linked immunosorbent assay (ELISA) following the manufacturer's recommendations; DLD Diagnostika, Hamburg, Germany).
as §2, with “FBS,” for “fetal bovine serum (FBS),”, “PBS” for “phosphate buffered saline (PBS)”, “PD 404” for “esomeprazole”, “conc” for “concentration”, “The serum was initially withdrawn due to the possibility that esomeprazole would interact with Cys containing serum proteins and fail to internalize at effective concentrations.” left out
After 24 hours, the cells were harvested. Total cellular protein was estimated as described and ADMA was measured by ELISA following the manufacturer's recommendations; DLD Diagnostika, Hamburg, Germany).
(In general: ELISA stands for enzyme-linked immunosorbent assay.)

The target of experiment [4] is recombinant human DDAH1 (rhDDAH1) (Homo sapiens (Human), UniProt O94760). Briefly: Colorimetric L-citrulline assay of DDAH activity (ADMA substrate; high throughput screen and orthogonal validation). Type of experiment: biochemical. The conditions noted are these: for inhibition of DDAH activity, orthogonal colorimetric assay: fresh powders, FIG. 3, vs vehicle; for IC50: high throughput screen of library copies (BMF-6, BMF-7, BMF-8, MicroSource, LOPAC), dose-dependent inhibition. As to the method:
(§3) The enzymatic activity of DDAH was monitored using a colorimetric assay that detects product (L-citrulline) formation from the substrate ADMA. In brief, recombinant human DDAH1 (rhDDAH1) was mixed with ADMA in the presence of screening buffer in 384-well plates. Plates were incubated at 37° C. for 4 hours. Subsequently, color developing reagent (containing 2 volumes of Antipyrine and 1 volume of 2,3-Butanedione oxime reagents) was added and the plates were incubated at 60° C. for 90 min prior to spinning them at 1,500 rpm for 5 min. In this assay absorbance is proportional to the concentration of citrulline generated by DDAH, and was measured using an AnalystGT plate reader at 485 nm using a dichroic beamsplitter.
as §3, with “ADMA, as described in Example 1.” for “ADMA.”, “antipyrine” for “Antipyrine”
The L-citrulline assay was based upon an original test-tube method developed by Prescott and Jones in 1969 (Prescott, L. M. & Jones, M. E. Modified methods for the determination of carbamyl aspartate. Anal Biochem 32, 408-419 (1969)), which was adapted and optimized for a microplate format. Subsequently, the activity of DDAH was quantified by detecting its conversion of ADMA to citrulline using the optimized protocol. The assay was scaled up to a 384-well format for high throughput chemical screening.
as §1
In brief, various amounts of rhDDAH1 (0.1 to 10 μM) were incubated with various concentrations of ADMA (1 μM to 8 mM) for various time points (30 min to 10 h) at room temperature or 37° C. […] The reactions were stopped and color was developed as described above followed by incubation at 60° C. for 90 min. Absorbance, proportional to DDAH activity, was measured at 485 nm±20 nm. In order to screen the entire library, the biochemical properties of the assay were optimized, as described above. The technique was modified so as to reduce the number of steps and facilitate robotic handling and throughput. Subsequently, HTS was performed using 384-well plates. […]

Molecules are shown by their SMILES.

T1 sequence (O94760 whole entry): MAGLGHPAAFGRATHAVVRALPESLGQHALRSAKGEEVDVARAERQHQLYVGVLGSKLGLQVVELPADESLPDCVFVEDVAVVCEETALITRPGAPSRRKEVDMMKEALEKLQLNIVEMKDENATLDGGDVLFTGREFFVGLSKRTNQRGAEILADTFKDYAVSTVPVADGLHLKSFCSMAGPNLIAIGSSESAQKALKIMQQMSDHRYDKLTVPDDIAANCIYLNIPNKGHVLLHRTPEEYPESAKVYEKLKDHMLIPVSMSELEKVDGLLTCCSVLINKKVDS
recombinant human DDAH1 (rhDDAH1), sequence (O94760 whole entry): as above

With `O=C1CC(N2CCCCCC2)C(=O)N1c1cccc2ccccc12` (stereo not shown), in experiment [1], the “Hill Slope” value was found to be 1.8 and it took 13.1 µM to reach half-maximal inhibition (IC50).

Regarding `O=C(O)c1ccc(N2C(=O)C=CC2=O)cc1`, in experiment [1], the “Hill Slope” value was 1.6 and inhibition was half-maximal at 23.3 µM (IC50).

For `Cc1ccc(NC(=O)/C=C/C(N)=O)cc1`, in experiment [1], the “Hill Slope” value was 1.1 and the IC50 (usually the concentration that inhibits the measured activity by half) is 21.2 µM.

Turning to `N/C=C1\C=C(c2ccccc2)OC1=S`, in experiment [1], the “Hill Slope” value is given as 1.3 and the IC50 turned out to be 17.7 µM.

`Cc1ccc(-c2ccc(CCC(=O)O)o2)cc1`: in experiment [1], the “Hill Slope” value was determined as 1.1 and it took 45.8 µM to reach half-maximal inhibition (IC50).

In the case of `Cc1cc(C)c2c(=O)n(CC(=O)NC(C)c3ccccc3)sc2n1` (stereo not shown), in experiment [1], the “Hill Slope” value was found to be 1.7 and 13.7 µM corresponded to half-maximal inhibition (IC50).

Consider `Cc1cc(C)c2c(=O)n(CC(=O)NC3CCCC(C)C3C)sc2n1` (stereo not shown), for which, in experiment [1], the “Hill Slope” value is recorded as 1.7 and it took 8.6 µM to reach half-maximal inhibition (IC50).

As for `Cc1cc(C)c2c(=O)n(CC(=O)NCCCSC3CCCCC3)sc2n1`, in experiment [1], the “Hill Slope” value was determined as 1.6 and the IC50 was determined as 12.8 µM.

Consider `CCOCCCNC(=O)Cn1sc2nc(C)cc(C)c2c1=O`, for which, in experiment [1], the “Hill Slope” value was found to be 2.3 and the half-maximal inhibitory concentration (IC50) stood at 7.1 µM.

With `Cc1cc(C)c2c(=O)n(CC(=O)NC(C)CCc3ccccc3)sc2n1` (stereo not shown), in experiment [1], the “Hill Slope” value is 1.6 and the IC50 was 14.1 µM.

As for `Cc1cc(C)c2c(=O)n(CC(=O)NCc3ccc4c(c3)OCO4)sc2n1`, in experiment [1], the “Hill Slope” value was determined as 1.5 and the IC50 came out at 11 µM.

`Cc1cc(C)c2c(=O)n(CC(=O)NCCc3ccc(Cl)cc3)sc2n1`: in experiment [1], the “Hill Slope” value turned out to be 1.2 and the IC50 worked out at 13.4 µM.

Regarding `CCOc1ccc(CCNC(=O)Cn2sc3nc(C)cc(C)c3c2=O)cc1`, in experiment [1], the “Hill Slope” value was 1.5 and 10.5 µM corresponded to half-maximal inhibition (IC50).

Consider `COc1ccc(OC)c(CCNC(=O)Cn2sc3nc(C)cc(C)c3c2=O)c1`, for which, in experiment [1], the “Hill Slope” value was 1.5 and the IC50 was 9.9 µM.

On to `CCCCNC(=O)Cn1sc2nc(C)cc(C)c2c1=O`, for which, in experiment [1], the “Hill Slope” value came to 1.7 and the IC50 came out at 5.1 µM.

As for `Cc1cc(C)c2c(=O)n(CC(=O)NCCC3=CCCCC3)sc2n1`, in experiment [1], the “Hill Slope” value is 2 and half-maximal inhibition (IC50) was put at 11.8 µM.

Turning to `COCCNC(=O)Cn1sc2nc(C)cc(C)c2c1=O`, in experiment [1], the “Hill Slope” value is 1.4 and half-maximal inhibition (IC50) was put at 3.3 µM.

For the molecule `Cc1cc(C)c2c(=O)n(CC(=O)NCc3ccccc3Cl)sc2n1`, in experiment [1], the “Hill Slope” value was determined as 0.4 and the IC50 was found to be 39.9 µM.

In the case of `COc1cnn(-c2ccccc2)c(=O)c1S` [4-MMP, 4-mercapto-5-methoxy-2-phenyl-3(2H)-pyridazinone], the IC50 in experiment [2] worked out at 12.7 µM.

On to `O=c1[nH]sc2ccccc12` [Benzo[d]isothiazol-3(2H)-one], for which, in experiment [1], the “Hill Slope” value was 1 and the IC50 worked out at 13.2 µM.

Take `COc1ccc2nc([S@@+]([O-])Cc3ncc(C)c(OC)c3C)[nH]c2c1` [Esomeprazole]: the “inhibition of DDAH activity, CPM fluorometric validation” value in experiment [2] was “inhibited DDAH activity significantly”. Also, the “increase in intracellular ADMA” value in experiment [3] is approximately 37%. Besides, the “inhibition of DDAH activity, orthogonal colorimetric assay” value in experiment [4] is on record as “significantly inhibited DDAH activity”.

For `Cc1c(OCC(F)(F)F)ccnc1C[S+]([O-])c1nc2ccccc2[nH]1` (stereo not shown) [Lansoprazole], the “inhibition of DDAH activity, CPM fluorometric validation” value in experiment [2] is on record as “inhibited DDAH activity significantly”. Besides, the IC50 in experiment [4] was determined as 51 µM.

Consider `COc1ccnc(C[S+]([O-])c2nc3cc(OC(F)F)ccc3[nH]2)c1OC` (stereo not shown) [Pantoprazole], for which, in experiment [2], the “inhibition of DDAH activity, CPM fluorometric validation” value is recorded as “inhibited DDAH activity significantly”. Also, the IC50 in experiment [4] turned out to be 63 µM.

Consider `COCCCOc1ccnc(C[S+]([O-])c2nc3ccccc3[nH]2)c1C` (stereo not shown) [Rabeprazole], for which, in experiment [2], the “inhibition of DDAH activity, CPM fluorometric validation” value is “inhibited DDAH activity significantly”. Further, the “inhibition of DDAH activity, orthogonal colorimetric assay” value in experiment [4] is recorded as “significantly inhibited DDAH activity”.

As for `CN=c1nc(-c2ccccc2)n(-c2ccccc2)s1` [SCH-202676], in experiment [2], the IC50 was 13.3 µM.

For `COc1ccc2[nH]c([S+]([O-])Cc3ncc(C)c(OC)c3C)nc2n1` (stereo not shown) [Tenatoprazole], the “inhibition of DDAH activity, CPM fluorometric validation” value in experiment [2] is recorded as “inhibited DDAH activity significantly”. Besides, in experiment [4], the IC50 was found to be 7.8 µM.

`O=c1c2ccccc2[se]n1-c1ccccc1` [ebselen]: the “inhibition of DDAH activity, CPM fluorometric validation” value in experiment [2] was “confirmed known DDAH inhibitors”.
